Twelve compounds from ChEMBL document CHEMBL4396891, “Recent update on anti-dengue drug discovery” (Eur J Med Chem, 2019) can be followed below.

The structures appear in SMILES notation. ≈ marks a conversion by molar mass, not a printed value.

For experiment [1], the system named is dengue virus type 2. The experiment can be described thus: Virucidal activity against DENV2 infected in human HepG2 cells. The experiment is classed as functional, organism-based.
The test system of experiment [2] is dengue virus type 2. In words: Virucidal activity against DENV2 infected in human HeLa cells. It is filed as functional, organism-based.
Experiment [3] deals with dengue virus type 2. The experiment can be described thus: Antiviral activity against DENV2 infected in BHK cells assessed as reduction in viral Yield at 20 uM after 48 hrs by fluorescence focus formation assay relative to control. It is filed as functional. Details: scale not given: the % may be the effect or the level left.
Experiment [4] relates to dengue virus type 2. The experiment can be described thus: Antiviral activity against DENV2 infected in human Huh7 cells assessed as reduction in viral Yield at 20 uM after 48 hrs by fluorescence focus formation assay relative to control. It is filed as functional. Details: scale not given: the % may be the effect or the level left.
For experiment [5], the system named is dengue virus type 2. The experiment can be described thus: Antiviral activity against DENV2 infected in BHK-21 cells. The experiment is classed as functional, organism-based.
Experiment [6] deals with T1, Genome polyprotein (dengue virus type 2, UniProt P29990). The experiment can be described thus: Inhibition of His-tagged DENV2 NS2B-NS3 serine protease expressed in Escherichia coli BL21 using Boc-Gly-Arg-Arg-7-amino-4-methylcoumarin as substrate measured after 10 mins by fluorometric assay.
Experiment [7] deals with dengue virus type 1. In words: Antiviral activity against DENV1 infected in African green monkey Vero cells assessed as reduction in viral replication after 4 days by qRT-PCR analysis. As to conditions: 96 h. It is filed as functional, organism-based.
Experiment [8] deals with dengue virus type 2. In words: Antiviral activity against DENV2 infected in African green monkey Vero cells assessed as reduction in viral replication after 4 days by qRT-PCR analysis. The experiment is classed as functional, organism-based. As to conditions: 96 h.
Experiment [9] relates to dengue virus type 3. The experiment can be described thus: Antiviral activity against DENV3 infected in African green monkey Vero cells assessed as reduction in viral replication after 4 days by qRT-PCR analysis. It is filed as functional, organism-based. As to conditions: 96 h.
Experiment [10] concerns dengue virus type 4. In words: Antiviral activity against DENV4 infected in African green monkey Vero cells assessed as reduction in viral replication after 4 days by qRT-PCR analysis. The experiment is classed as functional, organism-based. The conditions noted are these: 96 h.
Experiment [11] deals with dengue virus type 2. In words: Antiviral activity against DENV2 infected in monkey LLC-MK2 cells assessed as reduction in plaque formation after 72 hrs by 96-well based plaque titration method. The experiment is classed as functional, organism-based. As to conditions: LLC-MK2, 72 h.
Experiment [12] deals with dengue virus type 2. The experiment can be described thus: Antiviral activity against DENV2 infected in African green monkey Vero cells assessed as reduction in plaque formation after 72 hrs by 96-well based plaque titration method. It is filed as functional, organism-based.
Experiment [13] has as its system dengue virus type 1. In words: Antiviral activity against DENV1 infected in African green monkey Vero cells assessed as virus yield reduction after 48 hrs by plaque assay. It is filed as functional, organism-based.
In experiment [14] the test system is dengue virus type 2. In words: Antiviral activity against DENV2 infected in African green monkey Vero cells assessed as virus yield reduction after 48 hrs by plaque assay. It is filed as functional, organism-based.
Experiment [15] concerns dengue virus type 3. The experiment can be described thus: Antiviral activity against DENV3 infected in African green monkey Vero cells assessed as virus yield reduction after 48 hrs by plaque assay. It is filed as functional, organism-based.
The subject of experiment [16] is dengue virus type 4. In words: Antiviral activity against DENV4 infected in African green monkey Vero cells assessed as virus yield reduction after 48 hrs by plaque assay. It is filed as functional, organism-based.
The test system of experiment [17] is dengue virus type 2. The experiment can be described thus: Antiviral activity against DENV2 infected in monkey LLC-MK2 cells. It is filed as functional, organism-based.
Experiment [18] relates to dengue virus type 2. In words: Antiviral activity against DENV2 assessed as reduction in plaque formation. It is filed as functional, organism-based.
The subject of experiment [19] is dengue virus type 2. In words: Antiviral activity against DENV2 New Guinea C infected in HEK293 cells assessed as reduction in viral infection after 48 hrs by focus forming assay. As to conditions: HEK293, 48 h. The experiment is classed as functional, organism-based.
The subject of experiment [20] is dengue virus type 1. The experiment can be described thus: Antiviral activity against DENV1 infected in mouse RAW 264.7 cells by MTT assay. It is filed as functional, organism-based. As to conditions: RAW264.7.
For experiment [21], the system named is dengue virus type 2. In words: Antiviral activity against DENV2 infected in mouse RAW 264.7 cells by MTT assay. It is filed as functional, organism-based. The conditions noted are these: RAW264.7.
Experiment [22] has as its system dengue virus type 3. The experiment can be described thus: Antiviral activity against DENV3 infected in mouse RAW 264.7 cells by MTT assay. The conditions noted are these: RAW264.7. The experiment is classed as functional, organism-based.
Experiment [23] deals with dengue virus type 4. In words: Antiviral activity against DENV4 infected in mouse RAW 264.7 cells by MTT assay. As to conditions: RAW264.7. The experiment is classed as functional, organism-based.
The target of experiment [24] is T1, Genome polyprotein. In words: Inhibition of Dengue virus NS2B-NS3 serine protease expressed in mouse RAW 264.7 cells. The experiment is classed as cell-based.
The subject of experiment [25] is dengue virus type 1. The experiment can be described thus: Antiviral activity against DENV1 infected in African green monkey Vero cells after 30 mins by immunofluorescence assay. The experiment is classed as functional, organism-based. As to conditions: 0.5 h.
The subject of experiment [26] is dengue virus type 2. The experiment can be described thus: Antiviral activity against DENV2 infected in African green monkey Vero cells after 30 mins by immunofluorescence assay. The experiment is classed as functional, organism-based. As to conditions: 0.5 h.
The subject of experiment [27] is dengue virus type 3. In words: Antiviral activity against DENV3 infected in African green monkey Vero cells after 30 mins by immunofluorescence assay. The experiment is classed as functional, organism-based. As to conditions: 0.5 h.
In experiment [28] the test system is dengue virus type 4. The experiment can be described thus: Antiviral activity against DENV4 infected in African green monkey Vero cells after 30 mins by immunofluorescence assay. The conditions noted are these: 0.5 h. It is filed as functional, organism-based.
The test system of experiment [29] is dengue virus type 1. In words: Antiviral activity against DENV1 after 48 hrs by qRT-PCR analysis. The experiment is classed as functional, organism-based.
Experiment [30] has as its system dengue virus type 2. In words: Antiviral activity against DENV2 after 48 hrs by qRT-PCR analysis. The experiment is classed as functional, organism-based.
Experiment [31] has as its system dengue virus type 3. In words: Antiviral activity against DENV3 after 48 hrs by qRT-PCR analysis. The experiment is classed as functional, organism-based.
Experiment [32] deals with dengue virus type 4. The experiment can be described thus: Antiviral activity against DENV4 after 48 hrs by qRT-PCR analysis. It is filed as functional, organism-based.

T1 sequence (P29990 1346-1475 limits assumed): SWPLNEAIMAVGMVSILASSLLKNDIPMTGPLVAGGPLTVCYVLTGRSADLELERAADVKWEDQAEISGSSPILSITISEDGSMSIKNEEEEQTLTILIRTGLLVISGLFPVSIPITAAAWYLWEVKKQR
T1 sequence (P29990 1476-2093 limits assumed): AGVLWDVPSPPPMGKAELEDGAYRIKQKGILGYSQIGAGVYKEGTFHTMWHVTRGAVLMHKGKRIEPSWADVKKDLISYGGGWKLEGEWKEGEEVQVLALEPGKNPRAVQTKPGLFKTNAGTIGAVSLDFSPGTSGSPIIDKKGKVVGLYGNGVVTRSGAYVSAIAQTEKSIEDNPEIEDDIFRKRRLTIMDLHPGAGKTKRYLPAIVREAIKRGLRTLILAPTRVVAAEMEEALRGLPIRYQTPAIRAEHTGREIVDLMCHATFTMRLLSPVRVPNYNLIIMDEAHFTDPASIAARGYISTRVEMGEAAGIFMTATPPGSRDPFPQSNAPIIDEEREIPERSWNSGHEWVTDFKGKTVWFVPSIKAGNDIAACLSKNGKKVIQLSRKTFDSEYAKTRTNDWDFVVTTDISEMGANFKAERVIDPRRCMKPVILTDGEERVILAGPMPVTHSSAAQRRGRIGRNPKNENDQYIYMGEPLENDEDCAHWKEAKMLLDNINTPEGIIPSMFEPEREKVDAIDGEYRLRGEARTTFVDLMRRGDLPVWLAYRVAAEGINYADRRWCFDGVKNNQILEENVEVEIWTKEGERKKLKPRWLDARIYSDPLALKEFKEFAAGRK

`C=C1CC[C@@H]2[C@](C)(CO)[C@H](O)CC[C@@]2(C)[C@@H]1C/C=C1/C(=O)OC[C@H]1O` [ANDROGRAPHOLIDE]: the 50% effective concentration (EC50) in [1] was found to be 21.3 µM; in experiment [2], 22.7 µM.

On to `C=CCc1ccc(O)c(-c2ccc(O)c(CC=C)c2)c1` [HONOKIOL], for which the Activity in experiment [3] and in [4] was more than 90% in each case.

In turn, `O=c1c(O)c(-c2ccc(O)c(O)c2)oc2cc(O)cc(O)c12` [QUERCETIN] showed an IC50 in [5] of 176 µg/mL (≈ 583 µM).

With `O=C(Nc1nc2cc(O)c(O)cc2s1)c1ccccc1Sc1ccc(C(F)(F)F)cc1`, the IC50 in experiment [6] worked out at 3.6 µM. Also, the concentration giving a half-maximal response (EC50) is 0.1 to 3 µM in experiment [7], 0.1 µM in experiment [8], 0.1 µM in experiment [9] and 0.1 µM in experiment [10].

As to `COc1cc2c(c(O)c1C)C(=O)CC(c1ccccc1)O2` (configuration not stated) [STROBOPININ-7-METHYLETHER], the EC50 worked out at 3.72 µM in [11] and 12.3 µM in experiment [12].

For the compound `COc1ccc2c3ccnc(C)c3n(C)c2c1`, the EC50 in [13], in [14], in experiment [15] and in experiment [16] was 3.2 to 49.5 µM each time.

`C=C(C)[C@@H]1CC[C@]2(C)CC[C@]3(C)[C@H](CC[C@@H]4[C@@]5(C)CC[C@H](O)C(C)(C)[C@@H]5CC[C@]43C)[C@@H]12` [LUPEOL]: the concentration for a half-maximal effect (EC50) in experiment [17] came to 9.77 µM.

`COc1cc(/C=C/C(=O)CC(=O)/C=C/c2ccc(O)c(OC)c2)ccc1O` [CURCUMIN]: the half-maximal inhibitory concentration (IC50) in [18] came to 11.5 µM.

As for `Nc1c(C(=O)Nc2nc(-c3ccccc3)cs2)sc2nc3c(cc12)CN(c1ccccc1)CC3`, in [19], the half-maximal inhibitory concentration (IC50) turned out to be 0.025 µM.

Regarding `CC(=O)O[C@H]1CC(C)(C)C(=C=C/C(C)=C/C=C/C=C/C=C(C)/C=C2C=C(/C=C/[C@@]34O[C@]3(C)C[C@@H](O)CC4(C)C)C(=O)O/2)[C@](C)(O)C1`, the concentration giving a half-maximal response (EC50) in experiment [20] is 5.84 to 7.62 µM; in experiment [21], 5.84 to 7.62 µM; in experiment [22], 5.84 to 7.62 µM; in [23] it was 5.84 to 7.62 µM; in experiment [24], 8.5 µM.

Consider `C/C(=N\NC(N)=S)[C@H](Cc1c[nH]c2ccccc12)NC(=O)c1ccccc1`, for which the EC50 in experiment [25], in experiment [26], in experiment [27] and in experiment [28] was 30 to 50 µM throughout.

With `NCC(=O)Nc1ccc(-n2nc(C(F)(F)F)cc2-c2ccc3c(ccc4ccccc43)c2)cc1` [AR-12], the 50% effective concentration (EC50) in [29], in experiment [30], in experiment [31] and in experiment [32] was 0.6 to 0.8 µM each time.
